Assay results as given in PubChem BioAssay (NCI).
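Assay format: 96-well plates, 48-hour exposure. The concentration for 50% growth inhibition is given as GI50. At the TGI there is no net growth.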

Key:
Assay in all cases: NCI anticancer screen, dose series, 48 h
SK-OV-3 ovarian = system: SK-OV-3 ovarian
KM12 colon = system: KM12 colon
HCT-116 colon = system: HCT-116 colon
HS 578T breast = system: HS 578T breast
OVCAR-8 ovarian = system: OVCAR-8 ovarian
IGROV1 ovarian = system: IGROV1 ovarian
SNB-19 CNS = system: SNB-19 CNS
OVCAR-5 ovarian = system: OVCAR-5 ovarian
MOLT-4 leukemia = system: MOLT-4 leukemia
M14 melanoma = system: M14 melanoma
UACC-257 melanoma = system: UACC-257 melanoma
NCI-H226 lung = system: NCI-H226 lung
SK-MEL-5 melanoma = system: SK-MEL-5 melanoma
BT-549 breast = system: BT-549 breast
NCI-H522 lung = system: NCI-H522 lung
SNB-75 CNS = system: SNB-75 CNS
MDA-MB-435 = system: MDA-MB-435
DU-145 prostate = system: DU-145 prostate
SF-268 CNS = system: SF-268 CNS
MALME-3M melanoma = system: MALME-3M melanoma
A549 NSCLC = system: A549 NSCLC
EKVX NSCLC = system: EKVX NSCLC
UO-31 renal = system: UO-31 renal
HCT-15 colon = system: HCT-15 colon
UACC-62 melanoma = system: UACC-62 melanoma
MDA-MB-231 breast = system: MDA-MB-231 breast
PC-3 prostate = system: PC-3 prostate
RXF 393 renal = system: RXF 393 renal
SK-MEL-2 melanoma = system: SK-MEL-2 melanoma
ACHN renal = system: ACHN renal
K-562 leukemia = system: K-562 leukemia
HOP-92 NSCLC = system: HOP-92 NSCLC
COLO 205 colon = system: COLO 205 colon
NCI/ADR-RES ovarian = system: NCI/ADR-RES ovarian
SN12C renal = system: SN12C renal
CAKI-1 renal = system: CAKI-1 renal
OVCAR-4 ovarian = system: OVCAR-4 ovarian
OVCAR-3 ovarian = system: OVCAR-3 ovarian
NCI-H23 lung = system: NCI-H23 lung
HOP-62 NSCLC = system: HOP-62 NSCLC
SK-MEL-28 melanoma = system: SK-MEL-28 melanoma
HT29 colon = system: HT29 colon
SW-620 colon = system: SW-620 colon
LOX IMVI melanoma = system: LOX IMVI melanoma
U251 CNS = system: U251 CNS
HCC-2998 colon = system: HCC-2998 colon
MCF7 breast = system: MCF7 breast
786-0 renal = system: 786-0 renal
TK-10 renal = system: TK-10 renal
SF-295 CNS = system: SF-295 CNS
NCI-H460 lung = system: NCI-H460 lung
CCRF-CEM leukemia = system: CCRF-CEM leukemia
SR leukemia = system: SR leukemia
HL-60(TB) leukemia = system: HL-60(TB) leukemia
RPMI-8226 leukemia = system: RPMI-8226 leukemia
SF-539 CNS = system: SF-539 CNS
A498 renal = system: A498 renal

## O=C1C=CC(=O)c2cc3cc(CO)ccc3cc21
SK-OV-3 ovarian
  GI50: 31.9 µM
  TGI: > 100 µM
KM12 colon
  GI50: 19.3 µM
  TGI: 51.3 µM
HCT-116 colon
  GI50: 1.82 µM
  TGI: 3.22 µM
HS 578T breast
  GI50: 21.3 µM
  TGI: 55.4 µM
OVCAR-8 ovarian
  GI50: 2.94 µM
  TGI: 11.2 µM
IGROV1 ovarian
  GI50: 8.79 µM
  TGI: 26 µM
SNB-19 CNS
  GI50: 20 µM
  TGI: 66.8 µM
OVCAR-5 ovarian
  GI50: 20.5 µM
  TGI: 55.6 µM
MOLT-4 leukemia
  GI50: 0.621 µM
  TGI: > 100 µM
M14 melanoma
  GI50: 14.4 µM
  TGI: 27.5 µM
UACC-257 melanoma
  GI50: 12 µM
  TGI: 27.2 µM
NCI-H226 lung
  GI50: 16.7 µM
  TGI: 31.5 µM
SK-MEL-5 melanoma
  GI50: 10.9 µM
  TGI: 22.9 µM
BT-549 breast
  GI50: 12.9 µM
  TGI: 25.7 µM
NCI-H522 lung
  GI50: 9.48 µM
  TGI: 26.4 µM
SNB-75 CNS
  GI50: 19.9 µM
  TGI: 48.6 µM
MDA-MB-435
  GI50: 10.4 µM
  TGI: 23.6 µM
DU-145 prostate
  GI50: 1.1 µM
  TGI: 2.54 µM
SF-268 CNS
  GI50: 16.7 µM
  TGI: 34.7 µM
MALME-3M melanoma
  GI50: 11.5 µM
  TGI: 26.1 µM
A549 NSCLC
  GI50: 19.3 µM
  TGI: 45.1 µM
EKVX NSCLC
  GI50: 14.5 µM
  TGI: 28.1 µM
UO-31 renal
  GI50: 2.35 µM
  TGI: 4.58 µM
HCT-15 colon
  GI50: 15.1 µM
  TGI: 28.4 µM
UACC-62 melanoma
  GI50: 17.9 µM
  TGI: 31.8 µM
MDA-MB-231 breast
  GI50: 11.5 µM
  TGI: 24.9 µM
PC-3 prostate
  GI50: 16.2 µM
  TGI: 34.1 µM
RXF 393 renal
  GI50: 14.6 µM
  TGI: 29.9 µM
SK-MEL-2 melanoma
  GI50: 16.8 µM
  TGI: 32.8 µM
ACHN renal
  GI50: 3.22 µM
  TGI: 10.8 µM
K-562 leukemia
  GI50: 1.06 µM
  TGI: 3.04 µM
HOP-92 NSCLC
  GI50: 2.76 µM
  TGI: 6.51 µM
COLO 205 colon
  GI50: 11.1 µM
  TGI: 49.5 µM
NCI/ADR-RES ovarian
  GI50: 19.5 µM
  TGI: 36.2 µM
SN12C renal
  GI50: 5.76 µM
  TGI: 15.8 µM
CAKI-1 renal
  GI50: 3.48 µM
  TGI: 10.3 µM
OVCAR-4 ovarian
  GI50: 5.55 µM
  TGI: 24.7 µM
OVCAR-3 ovarian
  GI50: 1.71 µM
  TGI: 4.2 µM
NCI-H23 lung
  GI50: 15.8 µM
  TGI: 29.2 µM
HOP-62 NSCLC
  GI50: 17.3 µM
  TGI: 31.1 µM
SK-MEL-28 melanoma
  GI50: 29.5 µM
  TGI: > 100 µM
HT29 colon
  GI50: 10.9 µM
  TGI: > 100 µM
SW-620 colon
  GI50: 1.51 µM
  TGI: 2.91 µM
LOX IMVI melanoma
  GI50: 1.94 µM
  TGI: 4.1 µM
U251 CNS
  GI50: 15.4 µM
  TGI: 28.7 µM
HCC-2998 colon
  GI50: 4.42 µM
  TGI: 14.1 µM
MCF7 breast
  GI50: 14.5 µM
  TGI: 33.3 µM
786-0 renal
  GI50: 1.74 µM
  TGI: 3.31 µM
TK-10 renal
  GI50: 15.5 µM
  TGI: 30 µM
SF-295 CNS
  GI50: 20 µM
  TGI: 37.8 µM
NCI-H460 lung
  GI50: 19.1 µM
  TGI: 39.8 µM

## CC(=O)NS(=O)(=O)c1ccc(-n2nc(-c3ccc(Cl)cc3)cc2-c2cc(O)ccc2O)cc1
KM12 colon
  GI50: 41.1 µM
  TGI: > 100 µM
HS 578T breast
  GI50: 62.2 µM
  TGI: > 100 µM
OVCAR-8 ovarian
  GI50: 33 µM
  TGI: > 100 µM
CCRF-CEM leukemia
  GI50: 5.55 µM
  TGI: > 100 µM
IGROV1 ovarian
  GI50: 92.8 µM
  TGI: > 100 µM
SR leukemia
  GI50: 39.5 µM
  TGI: > 100 µM
OVCAR-5 ovarian
  GI50: 20.1 µM
  TGI: 40 µM
MOLT-4 leukemia
  GI50: 87.3 µM
  TGI: > 100 µM
M14 melanoma
  GI50: 14 µM
  TGI: 27 µM
UACC-257 melanoma
  GI50: 15.9 µM
  TGI: 45.7 µM
NCI-H226 lung
  GI50: 14.4 µM
  TGI: 36.2 µM
SK-MEL-5 melanoma
  GI50: 36.4 µM
  TGI: > 100 µM
BT-549 breast
  GI50: > 100 µM
  TGI: > 100 µM
NCI-H522 lung
  GI50: 37 µM
  TGI: > 100 µM
MDA-MB-435
  GI50: 31.6 µM
  TGI: > 100 µM
DU-145 prostate
  GI50: 21.5 µM
  TGI: 47.5 µM
SF-268 CNS
  GI50: 52.1 µM
  TGI: > 100 µM
A549 NSCLC
  GI50: 34.9 µM
  TGI: > 100 µM
HL-60(TB) leukemia
  GI50: 40.8 µM
  TGI: > 100 µM
EKVX NSCLC
  GI50: 46.1 µM
  TGI: > 100 µM
UO-31 renal
  GI50: 20.5 µM
  TGI: 45.6 µM
HCT-15 colon
  GI50: 13.6 µM
  TGI: 26.5 µM
RPMI-8226 leukemia
  GI50: 21.1 µM
  TGI: 59.8 µM
UACC-62 melanoma
  GI50: 14.5 µM
  TGI: 27.6 µM
MDA-MB-231 breast
  GI50: 10.9 µM
  TGI: 22.8 µM
PC-3 prostate
  GI50: 13.8 µM
  TGI: 30 µM
SK-MEL-2 melanoma
  GI50: > 100 µM
  TGI: > 100 µM
SF-539 CNS
  GI50: 32.4 µM
  TGI: 81.6 µM
K-562 leukemia
  GI50: 29.9 µM
  TGI: 96 µM
HOP-92 NSCLC
  GI50: 17.1 µM
  TGI: 48.4 µM
NCI/ADR-RES ovarian
  GI50: 27.2 µM
  TGI: 70 µM
SN12C renal
  GI50: 19.6 µM
  TGI: 40.8 µM
CAKI-1 renal
  GI50: 28.1 µM
  TGI: 56.9 µM
OVCAR-3 ovarian
  GI50: 32.6 µM
  TGI: 84.9 µM
NCI-H23 lung
  GI50: 18.6 µM
  TGI: 32.6 µM
SW-620 colon
  GI50: 75 µM
  TGI: > 100 µM
HCC-2998 colon
  GI50: 20.7 µM
  TGI: 39.7 µM
MCF7 breast
  GI50: > 100 µM
  TGI: > 100 µM
786-0 renal
  GI50: 16.1 µM
  TGI: 29.6 µM
TK-10 renal
  GI50: 31.7 µM
  TGI: 92.6 µM
SF-295 CNS
  GI50: 30.9 µM
  TGI: > 100 µM
NCI-H460 lung
  GI50: > 100 µM
  TGI: > 100 µM
A498 renal
  GI50: 24.8 µM
  TGI: 93.4 µM
